The values that follow are results of earlier work, collected in publication PMC4228152 (BMC Pulmonary Medicine, 2014).

Structures are written as SMILES. Like-named read-outs stand apart in the source and are kept apart here.

Data set [1] deals with allergen induced asthmatic response.
For data set [2], the system named is PDE4.
The conditions of data set [3]: administered orally.
The subject of data set [4] is PDE4D.
In data set [5] the test system is monocytes. Set-up: method as in PMID 11865966. The settings on record: subjects after 4 weeks treatment.
The test system of data set [6] is PDE4A.
The subject of data set [7] is PDE4B.
[8] abbreviates: inhaled inhibitor, read-out: IC50.

What is called IC50 is the concentration that gives 50% inhibition. On to `CS(=O)(=O)Nc1ccc(C(=O)O[C@@H](Cc2c(Cl)c[n+]([O-])cc2Cl)c2ccc(OC(F)F)c(OCC3CC3)c2)cc1OCC1CC1` [CHF6001], for which the “fall in LAR” value in data set [1] (inhaled) was 30%. Also, the IC50 in data set [2] (setting [8]) was 0.026 nM.
`COc1cccc(Nc2c(C(N)=O)cnc3c(C)cc(S(=O)(=O)c4cccc(C(=O)N(C)C)c4)cc23)c1` [GSK256066]: the “reduction in LAR” value in data set [1] (inhaled) is listed as 34%. In data set [2] (setting [8]), the IC50 is 0.0032 nM.
On to `O=C(Nc1c(Cl)cncc1Cl)c1ccc(OC(F)F)c(OCC2CC2)c1` [roflumilast], for which the “mean Cmax” value in data set [3] is listed as 2,000 pg/ml. Also, the half-maximal inhibitory concentration (IC50) in data set [4] is […]; in data set [2] (average of three isoforms, read-out: IC50 average for PDE4-A, -B and -D), 0.5 nM; in data set [6] it was […]; in data set [7], […]. Besides, the “reduction in LAR AUC” value in data set [1] (oral) was 43%. In addition, the “inhibition of the maximal fall in the EAR” value in data set [1] (orally administered) is 14-28%. Further, the “inhibition of the maximal fall in the LAR” value in data set [1] (orally administered) is on record as 16-43%. Further, the “inhibition of LPS-induced TNFα release in monocytes ex vivo” value in data set [5] is 1.3 fold.
